Measurements as given in US12006355B2, “Nanobodies against cystic fibrosis transmembrane conductance regulator (CFTR) inhibitory factor (Cif)” (priority 2017, dated 2024).
“And” between values parts separate entries of the source, which are not always exact repeats. Identical values can stand only once.

Key:
[1] = target: T1, Cif (Pseudomonas aeruginosa, UniProt A0A0H2ZD27); assay: biochemical; conditions: Fluorescent assay IC50, Table 7, small molecule inhibitors
T1 construct: made in house
Protocol: Fluorescent-based Cif Inhibitory assay. Activity of enzyme was measured using a sensitive fluorescent-based assay similar to the method previously described for other EHs (29,30). Cyano(6-methoxynaphthalen-2-yl)methyl glycidyl carbonate (CMNGC) was used as a fluorescent reporter substrate. […] A schematic of the assay is depicted in FIG. 1.
Reported IC50 values are the average of triplicates with at least two data points above and at least two below the IC50. […] Control experiments without Cif (inhibitor/VHH and substrate) were used to evaluate the intrinsic fluorescence of inhibitors.

[2] = target: T1, Cif; assay: Octet bio-layer interferometry; type: binding; conditions: steady state analysis, 30° C.
Protocol: Octet Bio-Layer Interferometry: KD of Cif and their inhibitors was determined by Bio-Layer Interferometry using an Octet Red instrument (ForteBio). Recombinant Cif-His was prepared as described previously (20,29). Stocks of purified proteins were stored at 4° C. until used.

[3] = target: T1, Cif; assay: Competitive or displacement sandwich ELISA (dsELISA) with Nb 219; type: binding
Protocol: 2). Competitive or Displacement Sandwich assay. A 96-well plate was coated with pAb at 3 μg/mL, 100 μL per well at RT for 1 h. The plate was blocked with 1% skimmed milk in PBST at RT for at least 2 h. Cif in PBS was loaded at 20 ng/mL, 100 μL/well and incubated for 1 h at RT. Following 5 times wash with PBST, a serial dilution of small molecule synthetic inhibitors in PBS containing 20% methanol at 50 μL/well was loaded, followed by 50 μL/well of VHH at 0.1 μg/mL (or 5 ng/well) in PBS and incubated for 1 h at RT. Mouse anti-HA-HRP conjugate was added at 100 μl/well in a 1:3000 dilution as instructed by manufacturer. The plate was incubated for 1h at RT and washed 5 times. The plate was developed for 10 min with substrate solution added at 100 μl/well. The reaction was stopped by addition of 2M H2SO4 (50 μl/well) and absorbance was read at 450 nm. SigmaPlot 11.0 software was used for curve fitting and data analysis.
Development of nanobody-based screening assay. […] In this assay, the plate was coated with polyclonal anti-Cif antibody (pAb) that captured Cif-protein. Inhibitory anti-Cif Nb in role of a reporter was added at constant concentration together with a serial dilution of a tested inhibitor. […] In this assay, the amount of anti-Cif pAb loaded in the plate was optimized first. […] Second, the amount of Cif-protein captured on pAb was optimized. […] Both nanobodies 113 and 219 were evaluated in the inhibitory assay.

T1 sequence (A0A0H2ZD27 25-319 limits assumed): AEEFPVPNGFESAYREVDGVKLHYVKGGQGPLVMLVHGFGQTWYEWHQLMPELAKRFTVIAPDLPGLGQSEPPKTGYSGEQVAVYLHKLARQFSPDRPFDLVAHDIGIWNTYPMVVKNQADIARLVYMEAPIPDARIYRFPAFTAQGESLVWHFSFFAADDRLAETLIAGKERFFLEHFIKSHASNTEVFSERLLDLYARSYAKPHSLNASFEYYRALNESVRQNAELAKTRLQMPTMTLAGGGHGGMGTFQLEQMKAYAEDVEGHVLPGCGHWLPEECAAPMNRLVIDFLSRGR

Compound	IC50 [1]	Kd [2]	EC50 [3] [nM]	fold more potent than 8c ([3]; nanobody-based inhibitory sandwich ELISA) [fold]
NC(=O)c1ccc(-c2cc(Oc3c(Cl)cc(N)cc3Cl)ccc2O)cc1 [Compound 7, 5′-(4-amino-2,6-dichlorophenoxy)-2′-hydroxy-[1,1′-biphenyl]-4-carboxamide]	~500 nM and 550 nM	900 nM	700	–
CCC(=O)Nc1cc(Cl)c(Oc2ccc(O)c(-c3ccc(C(N)=O)c(F)c3)c2)c(Cl)c1 [Compound 8, 5′-(2,6-dichloro-4-propionamidophenoxy)-3-fluoro-2′-hydroxy-[1,1′-biphenyl]-4-carboxamide]	~500 nM and 470 nM	160 nM and 200 nM	200	1
O=C(O)CC(=O)Nc1cc(Cl)c(Oc2ccc(O)cc2)c(Cl)c1 [Compound 1, 3-((3,5-dichloro-4-(4-hydroxyphenoxy)phenyl)amino)-3-oxopropanoic acid, reference compound]	> 50000 nM	–	> 200000	–
